Experimental data taken from patent US11000033B2, “Ketone or oxime compound, and herbicide” (NISSAN CHEMICAL CORPORATION, priority 2014, dated 2021).

How the values were obtained:
Format in all cases: in vivo
[1] = tested on: Echinochloa crus-galli var. crus-galli; experiment: Test Example 3: herbicidal effect by foliage application, Wagner pot (symbol H); conditions: application herbicide amount 320 g/ha
Summary of the method: (§1)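 Alluvial soil was flooded to a depth of 0.1–0.5 cm, seeded with the weeds and rice, and kept in a greenhouse at 25–30 °C. After 14 days of growth, the foliage received a small-sprayer application of emulsion diluted to the intended rate; injury was rated at 3 weeks.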

Leptochloa chinensis = experiment: Test Example 3: herbicidal effect by foliage application, Wagner pot (symbol D); conditions: application herbicide amount 320 g/ha
Summary of the method: as §1

Cyperus difformis = experiment: Test Example 3: herbicidal effect by foliage application, Wagner pot (symbol E); conditions: application herbicide amount 320 g/ha
Summary of the method: as §1

[2] = tested on: directly sowed rice plant; experiment: Test Example 3: effect on crop by foliage application, Wagner pot (symbol b); conditions: application herbicide amount 320 g/ha
Summary of the method: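 Steps: fill a 1/10000-are Wagner pot with alluvial soil; add water and mix to submerge at 0.1–0.5 cm depth; sow rice plus Echinochloa crus-galli var. crus-galli, Leptochloa chinensis and Cyperus difformis; grow in a 25–30 °C greenhouse.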

Digitaria ciliaris = experiment: Test Example 5: herbicidal effect by foliage application, plastic box (symbol F); conditions: 320 g/ha, 3 weeks after application
Summary of the method: (§2)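 Sowing in sterilized diluvial soil, 14 days' greenhouse growth at 25° C. to 30° C., then uniform small-sprayer foliar application of aqueous emulsion dilution; plants scored three weeks afterwards.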

Setaria viridis = experiment: Test Example 5: herbicidal effect by foliage application, plastic box (symbol G); conditions: 320 g/ha, 3 weeks after application
Summary of the method: as §2

[3] = tested on: Echinochloa crus-galli var. crus-galli; experiment: Test Example 5: herbicidal effect by foliage application, plastic box (symbol H); conditions: 320 g/ha, 3 weeks after application
Summary of the method: as §2

Avena fatua = experiment: Test Example 5: herbicidal effect by foliage application, plastic box (symbol I); conditions: 320 g/ha, 3 weeks after application
Summary of the method: as §2

Alopecurus myosuroides = experiment: Test Example 5: herbicidal effect by foliage application, plastic box (symbol J); conditions: 320 g/ha, 3 weeks after application
Summary of the method: as §2

Lolium multiflorum Lam. = experiment: Test Example 5: herbicidal effect by foliage application, plastic box (symbol K); conditions: 320 g/ha, 3 weeks after application
Summary of the method: as §2

Apera spica-venti = experiment: Test Example 5: herbicidal effect by foliage application, plastic box (symbol L); conditions: 320 g/ha, 3 weeks after application
Summary of the method: as §2

Abutilon theophrasti = experiment: Test Example 5: herbicidal effect by foliage application, plastic box (symbol M); conditions: 320 g/ha, 3 weeks after application
Summary of the method: as §2

Amaranthus retroflexus = experiment: Test Example 5: herbicidal effect by foliage application, plastic box (symbol N); conditions: 320 g/ha, 3 weeks after application
Summary of the method: as §2

Chenopodium album = experiment: Test Example 5: herbicidal effect by foliage application, plastic box (symbol O); conditions: 320 g/ha, 3 weeks after application
Summary of the method: as §2

Stellaria media = experiment: Test Example 5: herbicidal effect by foliage application, plastic box (symbol P); conditions: 320 g/ha, 3 weeks after application
Summary of the method: as §2

Galium spurium = experiment: Test Example 5: herbicidal effect by foliage application, plastic box (symbol Q); conditions: 320 g/ha, 3 weeks after application
Text: Herbicidal Effect Test by Foliage Application
Sterilized diluvial soil was placed in a plastic box having a length of 21 cm, a width of 13 cm, and a depth of 7 cm. Each of the seeds of Digitaria ciliaris, Setaria viridis, Echinochloa crus-galli var. crus-galli, Avena fatua, Alopecurus myosuroides, Lolium multiflorum Lam., Apera spica-venti, Abutilon theophrasti, Amaranthus retroflexus, Chenopodium album, Stellaria media, Galium spurium, Veronica persica, corn, soybean, rice plant, wheat, beet, and rapeseed was sowed in a spot-like manner and was covered with the soil of a thickness of about 1.5 cm. Thereafter, the plants were grown in the greenhouse of 25° C. to 30° C. After the plants were grown for 14 days, the emulsion agent of the compound of the present invention prepared in accordance with Formulation Example 2 was diluted with water so as to be a predetermined herbicide amount and the diluted emulsion agent was uniformly applied to a foliage part with a small-size spray. 3 weeks later from the herbicide application, the effect to each plant was investigated in accordance with the criteria of Test Example 1.

Veronica persica = experiment: Test Example 5: herbicidal effect by foliage application, plastic box (symbol R); conditions: 320 g/ha, 3 weeks after application
Summary of the method: as §2

corn = experiment: Test Example 5: effect on crop by foliage application, plastic box (symbol c); conditions: 320 g/ha, 3 weeks after application
Summary of the method: (§3)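 Crop seed is sown alongside grass and broadleaf weed species in spots in sterilized diluvial soil, then covered to a depth of about 1.5 cm. Plants grow in a greenhouse kept at 25° C. to 30° C.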

soybean = experiment: Test Example 5: effect on crop by foliage application, plastic box (symbol d); conditions: 320 g/ha, 3 weeks after application
Summary of the method: as §3

rice plant = experiment: Test Example 5: effect on crop by foliage application, plastic box (symbol b); conditions: 320 g/ha, 3 weeks after application
Summary of the method: as §3

wheat = experiment: Test Example 5: effect on crop by foliage application, plastic box (symbol e); conditions: 320 g/ha, 3 weeks after application
Summary of the method: as §3

beet = experiment: Test Example 5: effect on crop by foliage application, plastic box (symbol f); conditions: 320 g/ha, 3 weeks after application
Summary of the method: as §3

rapeseed = experiment: Test Example 5: effect on crop by foliage application, plastic box (symbol g); conditions: 320 g/ha, 3 weeks after application
Summary of the method: as §3

In the case of CON=C(C)CC1CC(OC(=O)N(C(C)C)C(C)C)=C(c2c(C)cc(C)cc2C)C1=O (stereo not drawn) [1-158], the “herbicidal effect on H (Echinochloa crus-galli var. crus-galli), grade 0-5” value (shortened to “herbicidal effect on H”) [1] is reported as 0 (Herbicidal ratio of 5% or lower (almost no effect)), the “herbicidal effect on D (Leptochloa chinensis), grade 0-5” value (“herbicidal effect on D” below) (Leptochloa chinensis) is reported as 2 (Herbicidal ratio of 20% or higher and lower than 40%) and the “herbicidal effect on E, grade 0-5” value (Cyperus difformis) is reported as 0 (Herbicidal ratio of 5% or lower (almost no effect)). The “effect on crop b (directly sowed rice plant), grade 0-5” value (from here on “effect on crop b”) [2] was 2 (Herbicidal ratio of 20% or higher and lower than 40%), the “F: Digitaria ciliaris, herbicidal effect grade” value (Digitaria ciliaris) was 0 (Herbicidal ratio of 5% or lower (almost no effect)) and the “G: Setaria viridis, herbicidal effect grade” value (Setaria viridis) was 0 (Herbicidal ratio of 5% or lower (almost no effect)). The “H: Echinochloa crus-galli var. crus-galli, herbicidal effect grade” value [3] was 1 (Herbicidal ratio of 5% or higher and lower than 20%), the “I: Avena fatua, herbicidal effect grade” value (Avena fatua) was 3 (Herbicidal ratio of 40% or higher and lower than 70%) and the “J: Alopecurus myosuroides, herbicidal effect grade” value (Alopecurus myosuroides) was 1 (Herbicidal ratio of 5% or higher and lower than 20%). For the same compound, the “K: Lolium multiflorum Lam., herbicidal effect grade” value (Lolium multiflorum Lam.) was 4 (Herbicidal ratio of 70% or higher and lower than 90%), the “L: Apera spica-venti, herbicidal effect grade” value (Apera spica-venti) was 0 (Herbicidal ratio of 5% or lower (almost no effect)) and the “M: Abutilon theophrasti, herbicidal effect grade” value (Abutilon theophrasti) was 0 (Herbicidal ratio of 5% or lower (almost no effect)). For the same compound, the “N: Amaranthus retroflexus, herbicidal effect grade” value (Amaranthus retroflexus) was 0 (Herbicidal ratio of 5% or lower (almost no effect)), the “O: Chenopodium album, herbicidal effect grade” value (Chenopodium album) was 0 (Herbicidal ratio of 5% or lower (almost no effect)) and the “P: Stellaria media, herbicidal effect grade” value (Stellaria media) was 0 (Herbicidal ratio of 5% or lower (almost no effect)). The “Q: Galium spurium, herbicidal effect grade” value (Galium spurium) was 0 (Herbicidal ratio of 5% or lower (almost no effect)), the “R: Veronica persica, herbicidal effect grade” value (Veronica persica) was 0 (Herbicidal ratio of 5% or lower (almost no effect)) and the “c: corn, effect on crop grade” value (corn) was 0 (Herbicidal ratio of 5% or lower (almost no effect)). For the same compound, the “d: soybean, effect on crop grade” value (soybean) was 0 (Herbicidal ratio of 5% or lower (almost no effect)), the “b: directly sowed rice plant, effect on crop grade” value (rice plant) was 1 (Herbicidal ratio of 5% or higher and lower than 20%) and the “e: wheat, effect on crop grade” value (wheat) was 0 (Herbicidal ratio of 5% or lower (almost no effect)). For the same compound, the “f: beet, effect on crop grade” value (beet) was 0 (Herbicidal ratio of 5% or lower (almost no effect)) and the “g: rapeseed, effect on crop grade” value (rapeseed) was 2 (Herbicidal ratio of 20% or higher and lower than 40%).

In the case of CCOC(=O)C(C(=O)C1CCCCC1)C1CC(O)=C(c2c(C)cc(C)cc2C)C1=O (stereo not drawn) [2-029], the “herbicidal effect on H” value [1] is reported as 0 (Herbicidal ratio of 5% or lower (almost no effect)), the “herbicidal effect on D” value (Leptochloa chinensis) is reported as 0 (Herbicidal ratio of 5% or lower (almost no effect)) and the “herbicidal effect on E, grade 0-5” value (Cyperus difformis) is reported as 0 (Herbicidal ratio of 5% or lower (almost no effect)). For the same compound, the “effect on crop b” value [2] was 4 (Herbicidal ratio of 70% or higher and lower than 90%), the “F: Digitaria ciliaris, herbicidal effect grade” value (Digitaria ciliaris) was 0 (Herbicidal ratio of 5% or lower (almost no effect)) and the “G: Setaria viridis, herbicidal effect grade” value (Setaria viridis) was 0 (Herbicidal ratio of 5% or lower (almost no effect)). The “H: Echinochloa crus-galli var. crus-galli, herbicidal effect grade” value [3] was 0 (Herbicidal ratio of 5% or lower (almost no effect)), the “I: Avena fatua, herbicidal effect grade” value (Avena fatua) was 2 (Herbicidal ratio of 20% or higher and lower than 40%) and the “J: Alopecurus myosuroides, herbicidal effect grade” value (Alopecurus myosuroides) was 0 (Herbicidal ratio of 5% or lower (almost no effect)). The “K: Lolium multiflorum Lam., herbicidal effect grade” value (Lolium multiflorum Lam.) was 1 (Herbicidal ratio of 5% or higher and lower than 20%), the “L: Apera spica-venti, herbicidal effect grade” value (Apera spica-venti) was 0 (Herbicidal ratio of 5% or lower (almost no effect)) and the “M: Abutilon theophrasti, herbicidal effect grade” value (Abutilon theophrasti) was 0 (Herbicidal ratio of 5% or lower (almost no effect)). The “N: Amaranthus retroflexus, herbicidal effect grade” value (Amaranthus retroflexus) was 0 (Herbicidal ratio of 5% or lower (almost no effect)), the “O: Chenopodium album, herbicidal effect grade” value (Chenopodium album) was 0 (Herbicidal ratio of 5% or lower (almost no effect)) and the “P: Stellaria media, herbicidal effect grade” value (Stellaria media) was 0 (Herbicidal ratio of 5% or lower (almost no effect)). The “Q: Galium spurium, herbicidal effect grade” value (Galium spurium) was 0 (Herbicidal ratio of 5% or lower (almost no effect)), the “R: Veronica persica, herbicidal effect grade” value (Veronica persica) was 0 (Herbicidal ratio of 5% or lower (almost no effect)) and the “c: corn, effect on crop grade” value (corn) was 0 (Herbicidal ratio of 5% or lower (almost no effect)). For the same compound, the “d: soybean, effect on crop grade” value (soybean) was 0 (Herbicidal ratio of 5% or lower (almost no effect)), the “b: directly sowed rice plant, effect on crop grade” value (rice plant) was 2 (Herbicidal ratio of 20% or higher and lower than 40%) and the “e: wheat, effect on crop grade” value (wheat) was 0 (Herbicidal ratio of 5% or lower (almost no effect)). The “f: beet, effect on crop grade” value (beet) was 0 (Herbicidal ratio of 5% or lower (almost no effect)) and the “g: rapeseed, effect on crop grade” value (rapeseed) was 0 (Herbicidal ratio of 5% or lower (almost no effect)).

With CC(CC1CC(O)=C(c2c(C)cc(C)cc2C)C1=O)=NOCCN (stereo not drawn) [1-132] the “herbicidal effect on H” value [1] was 2 (Herbicidal ratio of 20% or higher and lower than 40%), the “herbicidal effect on D” value (Leptochloa chinensis) was 1 (Herbicidal ratio of 5% or higher and lower than 20%) and the “herbicidal effect on E, grade 0-5” value (Cyperus difformis) was 0 (Herbicidal ratio of 5% or lower (almost no effect)). For the same compound, the “effect on crop b” value [2] was 1 (Herbicidal ratio of 5% or higher and lower than 20%), the “F: Digitaria ciliaris, herbicidal effect (criteria 0-5)” value (Digitaria ciliaris) was 0 (Herbicidal ratio of 5% or lower (almost no effect)) and the “G: Setaria viridis, herbicidal effect (criteria 0-5)” value (Setaria viridis) was 0 (Herbicidal ratio of 5% or lower (almost no effect)). For the same compound, the “H: Echinochloa crus-galli var. crus-galli, herbicidal effect (criteria 0-5)” value [3] was 0 (Herbicidal ratio of 5% or lower (almost no effect)), the “I: Avena fatua, herbicidal effect (criteria 0-5)” value (Avena fatua) was 1 (Herbicidal ratio of 5% or higher and lower than 20%) and the “J: Alopecurus myosuroides, herbicidal effect (criteria 0-5)” value (Alopecurus myosuroides) was 2 (Herbicidal ratio of 20% or higher and lower than 40%). The “K: Lolium multiflorum Lam., herbicidal effect (criteria 0-5)” value (Lolium multiflorum Lam.) was 3 (Herbicidal ratio of 40% or higher and lower than 70%), the “L: Apera spica-venti, herbicidal effect (criteria 0-5)” value (Apera spica-venti) was 1 (Herbicidal ratio of 5% or higher and lower than 20%) and the “M: Abutilon theophrasti, herbicidal effect (criteria 0-5)” value (Abutilon theophrasti) was 0 (Herbicidal ratio of 5% or lower (almost no effect)). For the same compound, the “N: Amaranthus retroflexus, herbicidal effect (criteria 0-5)” value (Amaranthus retroflexus) was 0 (Herbicidal ratio of 5% or lower (almost no effect)), the “O: Chenopodium album, herbicidal effect (criteria 0-5)” value (Chenopodium album) was 0 (Herbicidal ratio of 5% or lower (almost no effect)) and the “P: Stellaria media, herbicidal effect (criteria 0-5)” value (Stellaria media) was 0 (Herbicidal ratio of 5% or lower (almost no effect)). For the same compound, the “Q: Galium spurium, herbicidal effect (criteria 0-5)” value (Galium spurium) was 0 (Herbicidal ratio of 5% or lower (almost no effect)), the “R: Veronica persica, herbicidal effect (criteria 0-5)” value (Veronica persica) was 0 (Herbicidal ratio of 5% or lower (almost no effect)) and the “c: corn, effect on crop (criteria 0-5)” value (corn) was 0 (Herbicidal ratio of 5% or lower (almost no effect)). The “d: soybean, effect on crop (criteria 0-5)” value (soybean) was 0 (Herbicidal ratio of 5% or lower (almost no effect)), the “b: directly sowed rice plant, effect on crop (criteria 0-5)” value (rice plant) was 1 (Herbicidal ratio of 5% or higher and lower than 20%) and the “e: wheat, effect on crop (criteria 0-5)” value (wheat) was 0 (Herbicidal ratio of 5% or lower (almost no effect)). The “f: beet, effect on crop (criteria 0-5)” value (beet) was 0 (Herbicidal ratio of 5% or lower (almost no effect)) and the “g: rapeseed, effect on crop (criteria 0-5)” value (rapeseed) was 3 (Herbicidal ratio of 40% or higher and lower than 70%).
